# Literature values, collected in US5846980A, “N-(benzhydryloxyalkyl)-4-(carboxy/carbamoyl methyl)-piperidine derivatives as antidepressants” (Cooperation Pharmaceutique Francaise, priority 1994, dated 1998).
# Key:
# [1] = tested on: sleep induced by phenobarbital; conditions: in vivo
# [2] = tested on: motor activity of the animals; conditions: in vivo
# stereotypic behaviors = conditions: in vivo
# [3] = tested on: immobility time of the mouse
# [4] = tested on: ptosis and hypothermia induced by reserpine; conditions: in vivo
compound,measurement,setting,value
1-[2-(Diphenylmethoxy)ethyl]-4-(3-phenylpropenyl)piperazine,sleep induced by phenobarbital,[1],decreases the sleep induced by phenobarbital
same,motor activity of the animals,[2],increases the motor activity of the animals
same,stereotypic behaviors,stereotypic behaviors,induces stereotypic behaviors
same,immobility time in the behavioral despair test,[3],decreases the immobility time of the mouse
same,antagonism of the hypothermia induced by reserpine,[4],antagonizes neither the ptosis nor the hypothermia induced by reserpine
same,antagonism of the ptosis induced by reserpine,[4],antagonizes neither the ptosis nor the hypothermia induced by reserpine
"CN1Cc2c(N)cccc2C(c2ccccc2)C1 (stereo not drawn) [1,2,3,4-tetrahydro-2-methyl-4-phenyl-8-isoquinolinamine]",antidepressant activity in human clinical studies,antidepressant activity,this effect is demonstrated in human clinical studies
c1ccc2sc(C3(N4CCCCC4)CCCCC3)cc2c1 [1-[1-(2-Benzo[b]thiophenyl)cyclohexyl]piperidine],inhibition of dopamine re-uptake,dopamine re-uptake,inhibit dopamine and noradrenaline re-uptake
same,inhibition of noradrenaline re-uptake,noradrenaline re-uptake,inhibit dopamine and noradrenaline re-uptake
